Data reported in publication PMC8592419 (PLoS ONE, 2021).
Values after ≈ are worked out from the molar mass of the structure shown. One block for each compound: values may come before it. Where a SMILES comes first, the peptide text is derived from it.

Experiments:
[1] = system: M. abscessus clinical isolate MAB05; assay: microbe, parasite or virus in culture; type: cell-based, M. abscessus subsp. abscessus; conditions: for FICI: AMP + CLA, mean ± S.D., two independent experiments
Experimental: (§1) Mab suspensions at a 5×10^5 CFU/ml final concentration were added to each well and incubated for 3 days and 14 days at 37°C. MIC values were defined when the percent killing of CFUs of more than 90% were compared to the media controls without AMPs or drugs. The fraction inhibitory concentration index (FICI) was calculated using the following formula: FICI = [C(MIC^A)/MIC^A] + [C(MIC^B)/MIC^B]. […] For interpretation, FICI ≤ 0.5 was interpreted as synergism, FICI >0.5–1.0 was interpreted as additive, FICI >1.0–4.0 was interpreted as indifferent and FICI >4.0 was interpreted as antagonism.

[2] = system: M. abscessus clinical isolate MAB03; assay: microbe, parasite or virus in culture; type: cell-based, M. abscessus subsp. abscessus; conditions: for FICI: AMP + CLA, mean ± S.D., two independent experiments
Experimental: as §1

[3] = system: M. abscessus clinical isolate MAB02; assay: microbe, parasite or virus in culture; type: cell-based, M. abscessus subsp. abscessus; conditions: for FICI: AMP + CLA, mean ± S.D., two independent experiments
Experimental: as §1

[4] = system: M. abscessus clinical isolate MAB01; assay: microbe, parasite or virus in culture; type: cell-based, M. abscessus subsp. abscessus; conditions: for FICI: AMP + CLA, mean ± S.D., two independent experiments
Experimental: as §1

[5] = system: M. abscessus clinical isolate MAB11; assay: microbe, parasite or virus in culture; type: cell-based, M. abscessus subsp. abscessus; conditions: for FICI: AMP + CLA, mean ± S.D., two independent experiments
Experimental: as §1

[6] = system: M. abscessus clinical isolate MAB09; assay: microbe, parasite or virus in culture; type: cell-based, M. abscessus subsp. abscessus; conditions: for FICI: AMP + CLA, mean ± S.D., two independent experiments
Experimental: as §1

[7] = system: M. abscessus clinical isolate MAB10; assay: microbe, parasite or virus in culture; type: cell-based, M. abscessus subsp. abscessus; conditions: for FICI: AMP + CLA, mean ± S.D., two independent experiments
Experimental: as §1

[8] = system: M. abscessus clinical isolate MAB07; assay: microbe, parasite or virus in culture; type: cell-based, M. abscessus subsp. abscessus; conditions: for FICI: AMP + CLA, mean ± S.D., two independent experiments
Experimental: as §1

[9] = system: M. abscessus clinical isolate MAB12; assay: microbe, parasite or virus in culture; type: cell-based, M. abscessus subsp. massiliense; conditions: for FICI: AMP + CLA, mean ± S.D., two independent experiments
Experimental: as §1

[10] = system: M. abscessus clinical isolate MAB14; assay: microbe, parasite or virus in culture; type: cell-based, M. abscessus subsp. massiliense; conditions: for FICI: AMP + CLA, mean ± S.D., two independent experiments
Experimental: as §1

[11] = system: M. abscessus clinical isolate MAB08; assay: In vitro antimicrobial susceptibility of potential AMPs, broth microdilution, 3 days; type: cell-based, M. abscessus subsp. abscessus; conditions: 3 days at 37°C
Experimental: (§2) Briefly, serial dilutions of the AMPs were prepared with potassium phosphate buffer (PPB) from the concentration range of 3.125 to 400 μg/ml and then 50 μl of each dilution were added to each 96-well plate. Colonies of the isolate were suspended and then further diluted in Mueller-Hinton broth to obtain a final concentration of 1×10^3 CFU/ml (optimized according to the available AMP stock concentration). Fifty microliters of this inoculum were added to each well of the plates. The plates were incubated for 3 days at 37°C. Plain media and bacterial suspensions without AMPs were used as negative and positive controls. The MIC values were read and recorded. All assays were performed in duplicate and two independent experiments.
(§3) For the in vitro antimicrobial susceptibility, the same protocol as described above was used. The culture plates were further incubated up to 3 days at 37°C. The MIC values were read and recorded.

[12] = system: M. abscessus clinical isolate MAB04; assay: as above; type: cell-based, M. abscessus subsp. abscessus; conditions: 3 days at 37°C
Experimental: as §2, §3

[13] = system: M. abscessus clinical isolate MAB13; type: cell-based, M. abscessus subsp. massiliense; conditions: 3 days at 37°C
Experimental: as §2, §3

[14] = system: clinical isolates of M. abscessus; assay: In vitro susceptibility of potential AMPs, 3 days, summary over isolates; type: cell-based, Mycobacterium abscessus; conditions: isolates MAB01 and MAB03
Experimental: as §2, §3

[15] = system: sixteen clinical Mab isolates; assay: 24-hour bactericidal activity assay, summary over isolates; type: cell-based, Mycobacterium abscessus; conditions: majority of the tested strains (10/16 isolates); equivalent of <50 μg/ml
Experimental: as §2
Potential AMPs from the screening assays were subjected to determine the 24-hour bactericidal activity assays (corresponding to the common time of administration) with sixteen clinical Mab isolates using the protocol as described above. To observe the early antimicrobial activities, the plates were incubated for 24 h at 37°C. The samples from each well were further diluted in 0.05% Tween 80 and inoculated on Mueller-Hinton agar. After incubation for 3 days at 37°C, the colony-forming units (CFUs) were counted and calculated for the percentage of killing using the following formula: % killing = 1 - (CFU sample/ CFU control) ×100.

[16] = Mycobacteroides abscessus, read-out: MIC of CLA

MIC of CLA, combined CLA + S61 ([1]; MAB05, checkerboard, in combination with S61): 16 µg/mL
MIC of CLA, combined CLA + S62 ([1]; MAB05, checkerboard, in combination with S62): 16 µg/mL
MIC of CLA, combined CLA + S63 ([1]; MAB05, checkerboard, in combination with S63): 16 µg/mL
MIC [1, 16]: 16 µg/mL
MIC of CLA, combined CLA + S61 ([2]; MAB03, checkerboard, in combination with S61): 2 µg/mL
MIC of CLA, combined CLA + S62 ([2]; MAB03, checkerboard, in combination with S62): 1.5 µg/mL
MIC of CLA, combined CLA + S63 ([2]; MAB03, checkerboard, in combination with S63): 4 µg/mL
MIC [2, 16]: 8 µg/mL
MIC of CLA, combined CLA + S61 ([3]; MAB02, checkerboard, in combination with S61): 64 µg/mL
MIC of CLA, combined CLA + S62 ([3]; MAB02, checkerboard, in combination with S62): 64 µg/mL
MIC of CLA, combined CLA + S63 ([3]; MAB02, checkerboard, in combination with S63): 64 µg/mL
MIC [3, 16]: 64 µg/mL
MIC of CLA, combined CLA + S61 ([4]; MAB01, checkerboard, in combination with S61): 32 µg/mL
MIC of CLA, combined CLA + S62 ([4]; MAB01, checkerboard, in combination with S62): 96 µg/mL
MIC [4, 16]: 1020 µg/mL
MIC of CLA, combined CLA + S61 ([5]; MAB11, checkerboard, in combination with S61): 128 µg/mL
MIC of CLA, combined CLA + S62 ([5]; MAB11, checkerboard, in combination with S62): 192 µg/mL
MIC of CLA, combined CLA + S63 ([5]; MAB11, checkerboard, in combination with S63): 192 µg/mL
MIC [5, 16]: 512 µg/mL
MIC of CLA, combined CLA + S61 ([6]; MAB09, checkerboard, in combination with S61): 8 µg/mL
MIC of CLA, combined CLA + S62 ([6]; MAB09, checkerboard, in combination with S62): 6 µg/mL
MIC of CLA, combined CLA + S63 ([6]; MAB09, checkerboard, in combination with S63): 4 µg/mL
MIC [6, 16]: 8 µg/mL
MIC of CLA, combined CLA + S61 ([7]; MAB10, checkerboard, in combination with S61): 32 µg/mL
MIC of CLA, combined CLA + S62 ([7]; MAB10, checkerboard, in combination with S62): 32 µg/mL
MIC of CLA, combined CLA + S63 ([7]; MAB10, checkerboard, in combination with S63): 8 µg/mL
MIC [7, 16]: 1020 µg/mL
MIC of CLA, combined CLA + S61 ([8]; MAB07, checkerboard, in combination with S61): 0.25 µg/mL
MIC of CLA, combined CLA + S62 ([8]; MAB07, checkerboard, in combination with S62): 0.25 µg/mL
MIC of CLA, combined CLA + S63 ([8]; MAB07, checkerboard, in combination with S63): 0.25 µg/mL
MIC [8, 16]: 16 µg/mL
MIC of CLA, combined CLA + S61 ([9]; MAB12, checkerboard, in combination with S61): 1,024 μg/ml
MIC of CLA, combined CLA + S62 ([9]; MAB12, checkerboard, in combination with S62): 1,024 μg/ml
MIC of CLA, combined CLA + S63 ([9]; MAB12, checkerboard, in combination with S63): 1,024 μg/ml
MIC [9, 16]: 1020 µg/mL
MIC of CLA, combined CLA + S61 ([10]; MAB14, checkerboard, in combination with S61): 4 µg/mL
MIC of CLA, combined CLA + S62 ([10]; MAB14, checkerboard, in combination with S62): 4 µg/mL
MIC of CLA, combined CLA + S63 ([10]; MAB14, checkerboard, in combination with S63): 32 µg/mL
MIC [10, 16]: 512 µg/mL
Compound: CC[C@H]1OC(=O)[C@H](C)[C@@H](O[C@H]2C[C@@](C)(OC)[C@@H](O)[C@H](C)O2)[C@H](C)[C@@H](O[C@@H]2O[C@H](C)C[C@H](N(C)C)[C@H]2O)[C@](C)(OC)C[C@@H](C)C(=O)[C@H](C)[C@@H](O)[C@]1(C)O [CLA, Clarithromycin]

Compound: CC[C@H](C)[C@H](NC(=O)[C@H](CCCCN)NC(=O)[C@H](CCCNC(=N)N)NC(=O)CNC(=O)[C@H](CC(C)C)NC(=O)[C@H](CO)NC(=O)[C@H](CCCNC(=N)N)NC(=O)[C@H](CC(C)C)NC(=O)CNC(=O)CN)C(=O)N[C@@H](CC(C)C)C(=O)N[C@@H](CCCNC(=N)N)C(=O)N[C@@H](C)C(=O)N[C@@H](Cc1c[nH]c2ccccc12)C(=O)N[C@@H](CCCCN)C(=O)N[C@@H](CCCCN)C(=O)N[C@@H](Cc1ccc(O)cc1)C(=O)O [S61] (H-GGLRSLGRKILRAWKKY-OH)
Antimicrobial peptides against M. abscessus isolates, MIC value [11]: >400 µg/mL
Antimicrobial peptides against M. abscessus isolates, MIC value [12]: >400 µg/mL
FICI ([1]; MAB05): 1.01±0.00
MIC, AMP alone ([1]; MAB05): >400 µg/mL
FICI ([2]; MAB03): 0.28±0.00
MIC, AMP alone ([2]; MAB03): 6.25 µg/mL
FICI ([3]; MAB02): 1.02±0.00
MIC, AMP alone ([3]; MAB02): >400 µg/mL
FICI ([4]; MAB01): 0.41±0.17
FICI ([5]; MAB11): 0.67±0.08
MIC, AMP alone ([5]; MAB11): >400 µg/mL
FICI ([6]; MAB09): 1.01±0.00
MIC, AMP alone ([6]; MAB09): >400 µg/mL
FICI ([7]; MAB10): 0.05±0.00
MIC, AMP alone ([7]; MAB10): >400 µg/mL
FICI ([8]; MAB07): 0.03±0.00
MIC, AMP alone ([8]; MAB07): >400 µg/mL
Antimicrobial peptides against M. abscessus isolates, MIC value [13]: >400 µg/mL
MIC values after 3 days [14]: 3.13 µM (≈ 6.27 µg/mL)
FICI ([9]; MAB12): 1.01±0.00
MIC, AMP alone ([9]; MAB12): >400 µg/mL
FICI ([10]; MAB14): 0.10±0.04
MIC, AMP alone ([10]; MAB14): >400 µg/mL
MIC with ~99% killed within 24 h, in μM [15]: less than 24.97 μM

Compound: CC[C@H](C)[C@H](NC(=O)[C@H](CCCCN)NC(=O)[C@H](CCCNC(=N)N)NC(=O)CNC(=O)[C@H](CC(C)C)NC(=O)[C@H](CO)NC(=O)[C@H](CCCNC(=N)N)NC(=O)[C@H](CC(C)C)NC(=O)CNC(=O)CN)C(=O)N[C@@H](CC(C)C)C(=O)N[C@@H](CCCNC(=N)N)C(=O)N[C@@H](C)C(=O)N[C@@H](Cc1c[nH]c2ccccc12)C(=O)N[C@@H](CCCCN)C(=O)O [S63] (H-GGLRSLGRKILRAWK-OH)
Antimicrobial peptides against M. abscessus isolates, MIC value [11]: >400 µg/mL
Antimicrobial peptides against M. abscessus isolates, MIC value [12]: >400 µg/mL
FICI ([1]; MAB05): 1.01±0.00
MIC, AMP alone ([1]; MAB05): >400 µg/mL
FICI ([2]; MAB03): 0.52±0.00
MIC, AMP alone ([2]; MAB03): 12.5 µg/mL
FICI ([3]; MAB02): 1.04±0.04
MIC, AMP alone ([3]; MAB02): >400 µg/mL
FICI ([4]; MAB01): 0.63±0.17
FICI ([5]; MAB11): 0.76±0.35
MIC, AMP alone ([5]; MAB11): >400 µg/mL
FICI ([6]; MAB09): 0.52±0.00
MIC, AMP alone ([6]; MAB09): >400 µg/mL
FICI ([7]; MAB10): 0.07±0.00
MIC, AMP alone ([7]; MAB10): >400 µg/mL
FICI ([8]; MAB07): 0.04±0.01
MIC, AMP alone ([8]; MAB07): >400 µg/mL
Antimicrobial peptides against M. abscessus isolates, MIC value [13]: >400 µg/mL
MIC values after 3 days [14]: 3.65 to 7.30 µM
FICI ([9]; MAB12): 1.01±0.00
MIC, AMP alone ([9]; MAB12): >400 µg/mL
FICI ([10]; MAB14): 0.19±0.00
MIC, AMP alone ([10]; MAB14): >400 µg/mL
MIC with ~99% killed within 24 h [15]: < 29.22 µM
